Data: PubChem BioAssay AID449762 (Southern Research Specialized Biocontainment Screening …, 2010)
Results filed as inconclusive are left out.

test system: M. tuberculosis H37Rv growth inhibition, 7H9 media; experiment: M. tuberculosis growth inhibition, HTS (AID 449762); details: not given;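 also: bacterial growth assessed after seven days of incubation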

Going from Cc1ccc(NC(=O)c2cnc(SCC(=O)NCC3CCCO3)n(C)c2=O)cc1C (stereo unspecified) to Cc1ccc(NC(=O)C2C3/C=C\CCCCC32)cc1C (stereo unspecified), the IC50 falls from 9.73 µM to 2.87 µM (3.4-fold). The second is the more potent here.

Going from CCCc1ccc(NC(=O)C2CCN(c3cnccn3)CC2)cc1 to Cc1cc(Nc2cc(Cl)nc(Sc3ccc(NC(=O)C4CC4)cc3)n2)n[nH]1, the IC50 falls from 53.9 µM to 26.2 µM (2.1-fold).

Compared with C/C(=N\Nc1ccc([N+](=O)[O-])cc1)c1cccc(N)c1, Cc1ncsc1CCOC(=O)c1ccc([N+](=O)[O-])cc1 is 7.8-fold lower in IC50: 62.9 µM for the first, 8.11 µM for the second.

Going from c1ccc2c(c1)CCN(c1nc(CN3CCOCC3)nc3sc4c(c13)CCCC4)C2 to c1ccc2c(c1)CCN(c1nc3cc4c(cc3s1)OCCO4)C2, the IC50 falls from 13.8 µM to 7.45 µM (1.9-fold). The second is the more potent here.

Going from O=C(/C=C/c1cn(-c2ccccc2)nc1-c1cccnc1)c1ccco1 to CCCCn1cnc2c(c(-c3ccccc3)c(-c3ccccc3)n2Cc2ccco2)c1=N, the IC50 rises from 14.8 µM to 75.3 µM (5.1-fold). The first is the more potent here.

Going from CCOC(=O)c1ccc(NC(=O)C(C)Sc2nc(O)c(-c3ccccc3)c(=O)[nH]2)cc1 (stereo unspecified) to COC(=O)c1ccc(COC(=O)CCc2nc(-c3ccccc3)c(-c3ccccc3)o2)cc1, the IC50 rises from 5.47 µM to 21.5 µM (3.9-fold).

Going from O=C1NCC(c2ccccc2)C1C(=O)N/N=C\c1ccc(-c2ccc(Cl)c(Cl)c2)o1 (stereo unspecified) to Oc1ccc(Nc2nc(-c3ccc4ccccc4c3)cs2)cc1, the IC50 falls from 91 µM to 42.9 µM (2.1-fold).

Going from COc1ccc(OCC(=O)Nc2c(C(=O)N(CCN(C)C)Cc3ccco3)oc3ccccc23)cc1 to COc1ccc(-c2cc(-c3ccccc3)c(C#N)c(S(C)=O)n2)cc1 (stereo unspecified), the IC50 falls from 24.8 µM to 15.1 µM (1.6-fold).

First: Cc1sc2ncnc(N3CCC(C(=O)N(CC(C)C)c4nc5ccccc5s4)CC3)c2c1C
Second: CCOC(=O)C1CCCN(c2ncnc3c2cnn3-c2ccc(OC)cc2)C1 (stereo unspecified)
The IC50 of the first is 37-fold higher: 84.5 µM for the first, 2.3 µM for the second.

O=C(Oc1ccc2ccccc2c1)c1cncc(Br)c1 and O=C(Oc1ccccc1-c1nnco1)c1ccc(Cl)cc1 are within 1.5-fold of each other in IC50: 13 µM for the first, 10.3 µM for the second.

Going from C=C1c2c(Cl)ccc(O)c2C(O)=C2C(=O)[C@]3(O)C(O)=C(C(N)=O)C(=O)[C@@H](N(C)C)[C@@H]3[C@@H](O)C12 (stereo partly specified) to CN(C)[C@@H]1C(=O)C(C(N)=O)=C(O)[C@@]2(O)C(=O)C3=C(O)c4c(O)cccc4[C@@](C)(O)C3C[C@@H]12 (stereo partly specified), the IC50 rises from 1.06 µM to 5.95 µM (5.6-fold). The first is the more potent here.

Cc1ccc(OC(=O)c2oc3ccc(F)cc3c2C)c(C)c1 and Cc1ccc2c(c1)Oc1ccc(NC(=O)CCl)cc1C(=O)N2 are within 1.5-fold of each other in IC50: 6.82 µM for the first, 7.88 µM for the second.

Cc1cc(C)cc(NC(=O)c2ccc(Cn3nc(C)c(Cl)c3C)o2)c1 and Cc1nn(Cc2ccccc2Cl)c2sc(C(=O)NCCCn3ccnc3)cc12 are within 1.5-fold of each other in IC50: 30.8 µM for the first, 37.5 µM for the second.

First: O=C(CSc1nc2ccccc2nc1N1CCOCC1)N1CCN(c2ccccc2)CC1
Second: c1ccc(Cn2c(CNc3nc4ccccc4n3CCN3CCCCC3)nc3ccccc32)cc1
The IC50 of the first is 3-fold lower: 11.4 µM for the first, 33.8 µM for the second.

First: CCCCNC(=S)N(C)/N=C/c1ccc2c(c1)OCO2
Second: CCCCNC(=S)N/N=C/c1cccc(OCC)c1O
The IC50 of the first is 2-fold higher: 12.2 µM for the first, 6.01 µM for the second. The second is the more potent here.

Oc1cc(Nc2ccccc2)cc2cccnc12 and CC(OC(=O)c1cnc2ccccc2n1)c1ccccc1Cl (stereo unspecified) are within 1.5-fold of each other in IC50: 13.8 µM for the first, 13.1 µM for the second.

Compared with CCCSc1nn2c(=O)c3ccccc3nc2s1, C/C(O)=C\c1nc2ccccc2oc1=O is 11-fold lower in IC50: 8.34 µM for the first, 0.77 µM for the second.

Compared with c1ccc(CC2CCN(C3=Nc4cccc5cccc3c45)CC2)cc1, O=C(CSC1=Nc2ccccc2C2=NC(c3ccccc3)C(=O)N12)NC1CCCCC1 (stereo unspecified) is 44-fold lower in IC50: 29.3 µM for the first, 0.66 µM for the second.

Going from COC(=O)CSc1ncnc2c1sc1nc3c(cc12)COC(C)(C)C3 to COC(=O)c1c(NC(=O)C(=O)N2CCCC2)sc2c1CC(C)(C)OC2, the IC50 rises from 3.68 µM to 9.46 µM (2.6-fold).

First: CCOC(=O)Cn1c(-c2ccccc2)ccc(C#N)c1=O
Second: Cc1ccc(C(=O)OCc2nnc(-c3ccccc3)o2)s1
The IC50 of the first is 4.2-fold lower: 4.51 µM for the first, 19 µM for the second.

Compared with CCOc1ccc(C2c3[nH]c4ccccc4c3C[C@H]3C(=O)N(C4CCN(Cc5ccccc5)CC4)CC(=O)N23)cc1OC (stereo partly specified), COc1cnc(-c2ccccn2)nc1Oc1ccc(Cl)c2ccccc12 is lower in IC50: 21.5 µM for the first, < 0.2 µM for the second.

Compared with CCN1CCN(Cc2ccc(NC(=O)c3cc(NC(=O)c4cncc(-c5cccs5)c4)cc(OC)c3)cc2C(F)(F)F)CC1, O=C(C1=C[C@@H](c2csc3ccccc23)C[C@@H](OCCCCO)O1)N1CCN(Cc2ccc3c(c2)OCO3)CC1 is 2.8-fold higher in IC50: 10.2 µM for the first, 28.5 µM for the second.

Going from CCOP(=O)(OCC)/C(=C/N1CCCCC1)NC(=O)c1ccccc1 to Cn1nc(-c2ccc(N3CCCCC3)c(NC(=O)c3ccco3)c2)c2ccccc2c1=O, the IC50 falls from 81.4 µM to 2.32 µM (35-fold). The second is the more potent here.

First: CC(Sc1nnc(NC2CCCCC2)s1)C(=O)Nc1ccc2c(c1)C(=O)c1ccccc1C2=O (stereo unspecified)
Second: CCOC(=O)c1ccc2c(c1)C(=O)N(C1CCCCC1)C2=O
The IC50 of the first is 8.5-fold lower: 11.5 µM for the first, 98.3 µM for the second. The first is the more potent here.

Compared with O=C(COC(=O)C1=COCCO1)NCc1ccc(Cl)cc1, CSc1nn(-c2ccc(C(=O)OCC(=O)NC(=O)NC(C)C)cc2)c(=S)s1 is 1.6-fold higher in IC50: 14.8 µM for the first, 23.1 µM for the second. The first is the more potent here.

Going from COC(=O)c1ccc(-n2cnc3ccccc32)nc1 to CC(C)(C)OC(=O)NNc1c2ccccc2nc2ccccc12, the IC50 rises from 13.9 µM to 22.8 µM (1.6-fold). The first is the more potent here.

First: CCOC(=O)c1c(CC(C)C)csc1NC(=O)CCl
Second: CCOC(=O)Cc1csc(NC(=O)c2c(O)c3c(n(CC(C)C)c2=O)CCCC3)n1
The IC50 of the first is lower: < 0.2 µM for the first, 5.19 µM for the second.

Compared with O=[N+]([O-])c1ccc(COc2ccc(-c3[nH]ncc3-c3ccc(Cl)cc3)c(O)c2)cc1, Cc1ccc(S(=O)(=O)n2ccc3c(OCCOCCNCc4ccc(F)cc4)cccc32)cc1 is 3-fold lower in IC50: 67.1 µM for the first, 22.1 µM for the second.

Compared with COc1cccc(-c2cc3nc4c(c(NCC(C)(C)CN(C)C)n3n2)CCCC4)c1, Clc1cccc(-c2cc3nc4c(c(NCc5ccco5)n3n2)CCCC4)c1 is 2-fold lower in IC50: 22 µM for the first, 11 µM for the second. The second is the more potent here.

First: COCCNC(=S)N/N=C(\C)c1ccc(OC)cc1
Second: COc1ccc(C2CC2/C(C)=N/OC(=O)c2ccc(F)cc2)cc1 (stereo unspecified)
The IC50 of the first is 3-fold higher: 40.8 µM for the first, 13.7 µM for the second.

Going from Cc1ccc(NC(=O)Cn2ccsc2=N)c([N+](=O)[O-])c1 to CCOC(=O)CNc1ccc(C(=O)OCC)cc1[N+](=O)[O-], the IC50 rises from 5.48 µM to 8.45 µM (1.5-fold). The first is the more potent here.

Going from CCCCCCCCCCC[N+](C)(C)CC/C=C1/c2ccccc2Sc2ccc(Cl)cc21 to CCN(CCNCC(O)COc1ccccc1C(C)C)c1cccc(C)c1 (stereo unspecified), the IC50 rises from 7.04 µM to 21.1 µM (3-fold). The first is the more potent here.

First: CCOC(=O)c1cnc(SC2CCc3ccccc3C2=O)nc1N (stereo unspecified)
Second: Nc1c2c(nc3ccn(Cc4ccccc4)c(=O)c13)CCC2
The IC50 of the first is 5.2-fold higher: 70.8 µM for the first, 13.7 µM for the second. The second is the more potent here.

Compared with Cc1ccccc1Cn1cc(NC(=O)c2noc(C(C)C)c2[N+](=O)[O-])cn1, O=C(CSc1ccccn1)Nc1nonc1[N+](=O)[O-] is 3.5-fold lower in IC50: 5.11 µM for the first, 1.45 µM for the second.

Going from CO[C@@]12[C@H](COC(N)=O)C3=C(C(=O)C(C)=C(N)C3=O)N1C[C@@H]1N[C@@H]12 to Cc1cc(C=C2C(=O)NC(=S)NC2=O)c(C)n1C1CCCC1, the IC50 falls from 39.6 µM to 10.9 µM (3.6-fold). The second is the more potent here.

First: CS(=O)(=O)c1nc(-c2ccccc2)cc(C(F)(F)F)n1
Second: CC1(c2nnc(-c3ccncc3)o2)CC(c2ccccc2)=NO1 (stereo unspecified)
The IC50 of the first is 9.5-fold lower: 6.68 µM for the first, 63.3 µM for the second. The first is the more potent here.

Going from COc1ccc(-c2nnc(SCC(=O)N3CCc4ccccc4C3)o2)cc1 to COc1ccc(-c2nnc(NC(=O)c3ccc([N+](=O)[O-])o3)o2)c(OC)c1, the IC50 falls from 17.6 µM to 1.05 µM (17-fold).

COC(=O)C(C)Oc1cc(C)ccc1COc1ccc(-n2nc(C)n(C(F)F)c2=O)cc1 (stereo unspecified) and COC(=O)c1ccc(/C=C/c2c(-c3ccsc3)oc3ccc(N4CCOCC4)cc23)cc1 are within 1.5-fold of each other in IC50: 16.6 µM for the first, 21.2 µM for the second.

Compared with Cc1ccccc1NC(=O)Cc1nc(COC(=O)/C=C/c2ccccc2)cs1, CC1(C)CC(=O)C2=C(C1)NC(Nc1nc3ccccc3o1)=NC2c1ccccn1 (stereo unspecified) is lower in IC50: 40.3 µM for the first, < 0.2 µM for the second.

First: O=C1NCN(c2ccccc2)C12CCN(CCCC(c1ccc(F)cc1)c1ccc(F)cc1)CC2
Second: Cc1cc(=O)oc2c(C)c(OCC(=O)N3CCN(C(=O)C4COc5ccccc5O4)CC3)ccc12 (stereo unspecified)
The IC50 of the first is 1.7-fold lower: 36.8 µM for the first, 61.5 µM for the second.

Going from CC(C)COCc1ccc(O)c2ncccc12 to O=C(N/N=C/c1ccc(Br)s1)c1cccs1, the IC50 rises from 1.64 µM to 24.3 µM (15-fold). The first is the more potent here.

Compared with CN(C)N=Nc1nc[nH]c1C(N)=O, Cc1cc(C)n2nc(/C(C#N)=C/c3ccccn3)c(C#N)c2n1 is 5-fold lower in IC50: 4.86 µM for the first, 0.97 µM for the second. The second is the more potent here.

CN(CCO)c1cc(Sc2nc3ccccc3s2)c2nonc2c1[N+](=O)[O-] gave an IC50 of 27 µM.

same assay, conditions: measured here: IC90 growth inhibition

Cc1ccc(NC(=O)c2cnc(SCC(=O)NCC3CCCO3)n(C)c2=O)cc1C (stereo unspecified) gave an IC90 of 35.1 µM.
